This is an account of results in patent publication US20250205260A1, “ADJUNCTIVE TREATMENT OF MYCOBACTERIAL DISEASES” (UNIVERSITY OF SOUTHERN CALIFORNIA, priority 2022, published 2025).

Each structure is given as a SMILES string. Converted amounts (≈) assume the structure as drawn.

The subject of the test is ΔtreS (TreS-deficient M. tuberculosis). The class given is cell-based, Mycobacterium tuberculosis.

Turning to `NNC(=O)c1ccncc1` [INH, isoniazid], the “IC95 ΔtreS” value came to 0.12 µg/mL (≈ 0.875 µM). With `COc1nc2ccc(Br)cc2cc1[C@@H](c1ccccc1)[C@@](O)(CCN(C)C)c1cccc2ccccc12` [BDQ, bedaquiline], the “IC95 ΔtreS” value is 0.21 µg/mL (≈ 0.378 µM).
